Molecular target: T1, CdgI GGDEF domain (GGDEF^CdgI) (Escherichia coli, UniProt P76236)
T1 construct: isolated cytoplasmic GGDEF domain (degenerate A-site, intact I-site), N-terminal MASE4 membrane domain removed; N-terminal His6 tag kept; pQE30xa in E. coli Fi8202
Assay: UV cross-linking with [alpha-32P]c-di-GMP, SDS-PAGE
Assay type: binding
Conditions: 42 nM radiolabelled c-di-GMP, competition with unlabelled c-di-GMP; labelled compound

T1 sequence (P76236 315-491): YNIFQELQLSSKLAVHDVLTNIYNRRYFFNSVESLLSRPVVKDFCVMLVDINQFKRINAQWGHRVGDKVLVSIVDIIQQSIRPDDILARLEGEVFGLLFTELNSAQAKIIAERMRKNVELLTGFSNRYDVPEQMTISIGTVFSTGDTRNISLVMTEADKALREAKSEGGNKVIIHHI

## Nc1nc2c(ncn2[C@@H]2O[C@@H]3COP(=O)(O)O[C@H]4[C@@H](O)[C@H](n5cnc6c(=O)[nH]c(N)nc65)O[C@@H]4COP(=O)(O)O[C@H]3[C@H]2O)c(=O)[nH]1 [c-di-GMP]
  UV cross-linking with [alpha-32P]c-di-GMP, SDS-PAGE: We observed that purified CdgI could indeed bind c-di-GMP
